Measurements published in paper PMC9489553, “Biochemical and clinical studies of putative allergens to assess what distinguishes them from other non-allergenic proteins in the same family” (Transgenic Research, 2022).

Target: T1, ChMDH (Cladosporium herbarum, UniProt P0C0Y5)
T1 construct: full length, codon-optimised synthetic gene, pET-28a, E. coli BL21(DE3), N-terminal His-tag cleaved, tetramer
Experiment: X-ray crystal structure, […] Å
Format: binding
Conditions: co-crystallised with 5 mM NADP+, pH 7.0, 4 °C; active site

T1 sequence (P0C0Y5 whole entry): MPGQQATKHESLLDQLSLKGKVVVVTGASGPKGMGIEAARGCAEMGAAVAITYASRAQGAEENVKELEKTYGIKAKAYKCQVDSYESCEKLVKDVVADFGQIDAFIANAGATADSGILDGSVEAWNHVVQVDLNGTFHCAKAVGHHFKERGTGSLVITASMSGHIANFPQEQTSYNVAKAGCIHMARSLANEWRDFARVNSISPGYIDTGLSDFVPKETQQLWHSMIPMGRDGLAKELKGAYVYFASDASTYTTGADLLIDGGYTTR

NC(=O)c1ccc[n+]([C@@H]2O[C@H](COP(=O)(O)OP(=O)(O)OC[C@H]3O[C@@H](n4cnc5c(N)ncnc54)[C@H](OP(=O)(O)O)[C@@H]3O)[C@@H](O)[C@H]2O)c1 [NADP^+]
X-ray crystal structure, 2.04 Å: ChMDH (the third orphan allergen selected for study) in complex with NADP^+ was determined
